Experimental data reported in patent US20050222168A1, “Beta-carboline derived guanidine alkaloids, tiruchenduramine” (Council of Scientific and Industrial Research, priority 2004, published 2005).

Tested on: α-glucosidase
Test: in-vitro assay for anti-diabetic activity (α-glucosidase inhibition)
Type: biochemical
Details: amount printed without volume or percent inhibition
Description: The structure of compound 1 was established by the study of ^1H-^1H—COSY, HMQC, HMBC and NOESY spectral data (Table 1) as Formula 1.

How did the “amount at which it inhibits α-glucosidase” value turn out when `N=C1NCC(CCNC(=O)c2cc3c(cn2)[nH]c2ccccc23)N1` (stereo not shown) [Tiruchenduramine, tiruchenduramine] was run?
The value was 788 µg.
